Measured values taken from patent US20070098781A1, “Modified release compositions for DPP-IV inhibitors” (priority 2005, published 2007).
Like-named read-outs stand apart in the source and are kept apart here. Blank lines part the entries; values can stand above or below the compound they belong to.

Assays:
[1] = test system: plasma DPPIV; test: Triple-cannulated cynomolgus monkey model: plasma DPPIV inhibition after site-specific delivery; assay type: in vivo; settings: for Mean Plasma DPPIV Inhibition: 5 mg/kg in solution
Procedure: (§1) A study was conducted in an in-house cynomolgus monkey model, in which permanent cannulae had been surgically attached to various sections of their intestine. This animal model allows compounds to be delivered to precise regions of the intestine in the intact animal in vivo. A single dose cross-over study was performed in three animals, where 5 mg/kg of (2S)-1-{[1,1-Dimethyl-3-(4-pyridin-3-yl-imidazol-1-yl)-propylamino]-acetyl}-pyrrolidine-2-carbonitrile was delivered (with sufficient wash out periods in between), in solution by gavage to the stomach or via the cannulae to the duodenum, the jejunum-ileum junction or the top of the ascending colon, respectively. An oral glucose challenge was performed in each animal for each treatment 2 hours post-dose of compound (plus a pre-study control). Full plasma PK and DPPIV inhibition profiles were obtained for each treatment. Blood glucose profiles were measured for 3 hours post-glucose challenge.

[2] = test system: blood glucose; test: Triple-cannulated cynomolgus monkey model: blood glucose after oral glucose challenge; assay type: in vivo; settings: 5 mg/kg; for Mean Delta Glucose AUEC: oral glucose challenge 2 hours post-dose
Procedure: as §1

[3] = Triple-cannulated cynomolgus monkey model: plasma PK after site-specific delivery; assay type: in vivo; settings: 5 mg/kg; for AUC: plasma, 5 mg/kg in solution
Procedure: as §1

[4] = test system: circulating markers (glucose, insulin, glucagon and GLP-1); test: Pharmacodynamic response after site-specific delivery: circulating markers following an oral glucose tolerance test (OGTT); assay type: in vivo, human; settings: healthy volunteers, 400 mg; for Mean Delta Blood Glucose AUEC / Mean Plasma GLP-1 AUEC / Mean Plasma Insulin AUEC: OGTT 2 h after release, baseline corrected
Procedure: (§2) A pharmacoscintigraphic evaluation of the regional drug absorption and pharmacodynamics of (2S)-1-{[2-(5-Methyl-2-phenyl-oxazol-4-yl)-ethylamino]-acetyl}-pyrrolidine-2-carbonitrile mesylate in up to 9 healthy male or female volunteers following administration to four different sites of the gastrointestinal tract: stomach, proximal small bowel, ileum and ascending colon was carried out. The study was conducted as an open label, 4-way cross-over design consisting of 4 study periods of approximately 2-3 days duration, each separated by washout period of at least 4 days.
(§3) During each study period, 400 mg (2S)-1-{[2-(5-Methyl-2-phenyl-oxazol-4-yl)-ethylamino]-acetyl}-pyrrolidine-2-carbonitrile mesylate was delivered to the appropriate gastrointestinal target using Enterion™ capsule technology. The capsule was administered with water containing a radiolabelled marker (^99mTc-DTPA) which was used to define the gastrointestinal anatomy and the movement of the capsule was followed by means of an ^111In marker within the device. The location of both radiolabels was monitored on images obtained from a dual wavelength gamma camera. Capsule activation and thereby drug release was achieved by applying an external signal. The release was planned to occur within 5 hours of the administration of a standardised low calorie meal.
(§4) The pharmacokinetics of (2S)-1-{[2-(5-Methyl-2-phenyl-oxazol-4-yl)-ethylamino]-acetyl}-pyrrolidine-2-carbonitrile mesylate were determined after each administration by monitoring plasma concentrations of parent drug and metabolites. The pharmacodynamic response was assessed by measuring the concentrations of circulating markers (glucose, insulin, glucagon and GLP-1) for up to 4 hours following an oral glucose tolerance test (OGTT), which itself was carried out 2 hours after release of the drug substance. A control OGTT response (i.e. no drug treatment) was established for each subject before the first treatment period began.

[5] = Pharmacoscintigraphic evaluation of regional drug absorption: plasma pharmacokinetics after site-specific gastrointestinal delivery (Enterion capsule); assay type: in vivo, human; settings: 400 mg, healthy volunteers; for AUC / Cmax: both sexes, human, plasma, oral; for AUC: read-out: Mean (SD) AUC; for Cmax: read-out: Mean (SD) Cmax
Procedure: as §2, §3, §4

[6] = dosing region ascending colon (cannula)
[7] = dosing region duodenum (cannula)
[8] = dosing region ileum-jejunum junction (cannula)
[9] = delivery to the ileum-jejenum junction or colon, versus other sites

systemic exposure to the compound [3, 9]: lowest systemic exposure
AUC [3, 6]: 354 ng·h/mL
AUC [3, 7]: 3890 ng·h/mL
AUC [3, 8]: 1350 ng·h/mL
AUC ([3]; po, dosing region stomach (gavage)): 2280 ng·h/mL
SMILES: CC(C)(CCn1cnc(-c2cccnc2)c1)NCC(=O)N1CCC[C@H]1C#N [(2S)-1-{[1,1-Dimethyl-3-(4-pyridin-3-yl-imidazol-1-yl)-propylamino]-acetyl}-pyrrolidine-2-carbonitrile]
Mean Plasma DPPIV Inhibition [1, 6]: 45 % baseline
Mean Plasma DPPIV Inhibition [1, 7]: 60 % baseline
Mean Plasma DPPIV Inhibition [1, 8]: 45 % baseline
Mean Plasma DPPIV Inhibition ([1]; dosing region stomach (gavage)): 65 % baseline
average plasma DPPIV inhibition ([1]; 5 mg/kg, delivery to the ileum-jejenum junction or colon, versus other sites): lowest average plasma DPPIV inhibition
effect on glucose [2, 9]: highest effect on glucose
blood glucose compared to control ([2]; delivery to the stomach, ileum or the ascending colon): reduction in blood glucose
Mean Delta Glucose AUEC ([2]; dosing region ascending colon): 52 % Control
Mean Delta Glucose AUEC ([2]; dosing region duodenum): 116 % Control
Mean Delta Glucose AUEC ([2]; dosing region ileum-jejunum junction): 76 % Control
Mean Delta Glucose AUEC ([2]; dosing region stomach): 88 % Control

AUC ([5]; dosing region colon): 3540 ng·h/mL
Cmax ([5]; dosing region colon): 736 ng/mL
AUC ([5]; dosing region duodenum): 14200 ng·h/mL
Cmax ([5]; dosing region duodenum): 7580 ng/mL
AUC ([5]; dosing region ileum): 12300 ng·h/mL
Cmax ([5]; dosing region ileum): 5420 ng/mL
AUC ([5]; dosing region stomach): 12200 ng·h/mL
Cmax ([5]; dosing region stomach): 5570 ng/mL
absorption and elimination rate (plasma profiles) ([5]; all routes of administration except for the colon): broadly similar
period for which plasma concentrations were sustained ([5]; colon delivery): 6-8 hours post dose
plasma concentrations ([5]; colon delivery versus other routes): substantially lower
Average exposure ([5]; delivery to the proximal small bowel (duodenum) versus other sites): slighter greater
SMILES: CS(=O)(=O)O.Cc1oc(-c2ccccc2)nc1CCNCC(=O)N1CCC[C@H]1C#N [(2S)-1-{[2-(5-Methyl-2-phenyl-oxazol-4-yl)-ethylamino]-acetyl}-pyrrolidine-2-carbonitrile mesylate]
Mean Delta Blood Glucose AUEC ([4]; dosing region PSB): 130 % Control
Mean Plasma GLP-1 AUEC ([4]; dosing region PSB): 180 % Control
Mean Plasma Insulin AUEC ([4]; dosing region PSB): 160 % Control
Mean Delta Blood Glucose AUEC ([4]; dosing region colon): 83 % Control
Mean Plasma GLP-1 AUEC ([4]; dosing region colon): 87 % Control
Mean Plasma Insulin AUEC ([4]; dosing region colon): 101 % Control
Mean Delta Blood Glucose AUEC ([4]; dosing region ileum): 47 % Control
Mean Plasma GLP-1 AUEC ([4]; dosing region ileum): 340 % Control
Mean Plasma Insulin AUEC ([4]; dosing region ileum): 47 % Control
Mean Delta Blood Glucose AUEC ([4]; dosing region stomach): 55 % Control
Mean Plasma GLP-1 AUEC ([4]; dosing region stomach): 151 % Control
Mean Plasma Insulin AUEC ([4]; dosing region stomach): 65 % Control
Mean blood glucose area under the effect curve (AUEC) following an OGTT vs control ([4]; both stomach and ileal delivery): substantially decreased
active glucagon-like peptide 1 (primary mechanistic biomarker) ([4]; only ileal delivery): sustained systematic increase
